Tested on: subjects with major depressive disorder (MDD) who were inadequate responders to citalopram
Test: Individual MADRS factor (subscale) scores, exploratory analysis
Format: in vivo, human
Protocol: In more detail, a multi-center double-blind, randomized, placebo-controlled, parallel group, flexible dose titration study of TC-5214 as adjunctive therapy in subjects with major depressive disorder (MDD) who were inadequate responders to citalopram was conducted in centers in the US and India. The study consisted of a screening period, baseline/washout period, open-label phase, double-blind phase, and a follow-up visit. Subject participation in the study could continue for up to 16 weeks of treatment. Following a washout period of up to 28 days for other antidepressants, subjects with MDD and a MADRS total score >/=28 and a Clinical Global Impression-Severity (CGI-S) score >/=4 were enrolled on Day 1 into an open-label citalopram-only phase of the study. This phase lasted 8 weeks, with citalopram (CIT) dose increased from a once-daily dose of 20 mg (Day 1 through Week 4) to 40 mg (Week 4 through Week 8). A total of 579 subjects entered the open-label citalopram phase. At Week 8, subjects who tolerated 40 mg CIT, but whose MADRS score was reduced <50% from baseline and no lower than 17, and CGI-S≧4, were considered inadequate responders. These subjects (n=270) were randomized in a double-blind fashion to receive either placebo or TC-5214-23 as add-on therapy to continued CIT. The double-blind phase of the study also lasted 8 weeks (Week 8 to Week 16). Study drug, TC-5214-23 or placebo, was started at 2 mg daily (1 mg twice per day [BID] dosing), added on to continuing CIT (40 mg PO qd). After 2 weeks of treatment, the dose of TC-5214 could be increased to 4 mg (2 mg BID) or continued unchanged, with up-titration based upon good tolerability and inadequate therapeutic response. After a further 2 weeks, the dose of TC-5214 could be increased again to 8 mg (4 mg BID) if judged appropriate by the investigator, based upon good tolerability and inadequate therapeutic response. At any time during the double-blind phase of the study, placebo or TC-5214-23 could be reduced to the previous dose level following the emergence of unacceptable adverse events (AEs). […] At this follow-up, any signs or symptoms of relapse were evaluated. If a subject was prematurely discontinued from the study between Week 8 and Week 16 for any reason, the investigator was to make every effort to perform all evaluations as per protocol, assuming the subject had reached the end of the double-blind add-on treatment phase. These evaluations were to be made as soon as possible and within 2 weeks of discontinuation. […] There was no meaningful difference in results as a function of age, gender, site, or smoking status. The exploratory analysis assessed the differences in the treatment groups in change from Week 8 (double-blind baseline) to Week 16 for each individual MADRS factor score.

[1] = ITT population, Week 8 (double-blind baseline) to Week 16

CNC1(C)C2CCC(C2)C1(C)C (stereo in doubt) [TC-5214, (S)—N,2,3,3-tetramethylnorbornan-2-amine]
MADRS item 1 Apparent Sadness: Adjusted Mean Change TC-5214—Placebo (SD) [1]: −0.88 (1.26) | MADRS item 1 Apparent Sadness: Effect Size [1]: 0.70 | MADRS item 2 Reported Sadness: Adjusted Mean Change TC-5214—Placebo (SD) [1]: −0.88 (1.28) | MADRS item 2 Reported Sadness: Effect Size [1]: 0.69 | MADRS item 3 Inner Tension: Adjusted Mean Change TC-5214—Placebo (SD) [1]: −0.79 (1.13) | MADRS item 3 Inner Tension: Effect Size [1]: 0.70 | MADRS item 4 Reduced Sleep: Adjusted Mean Change TC-5214—Placebo (SD) [1]: −0.99 (1.40) | MADRS item 4 Reduced Sleep: Effect Size [1]: 0.71 | MADRS item 5 Reduced Appetite: Adjusted Mean Change TC-5214—Placebo (SD) [1]: −0.76 (1.30) | MADRS item 5 Reduced Appetite: Effect Size [1]: 0.58 | MADRS item 6 Concentration Difficulties: Adjusted Mean Change TC-5214—Placebo (SD) [1]: −0.70 (1.20) | MADRS item 6 Concentration Difficulties: Effect Size [1]: 0.58 | MADRS item 7 Lassitude: Adjusted Mean Change TC-5214—Placebo (SD) [1]: −0.75 (1.20) | MADRS item 7 Lassitude: Effect Size [1]: 0.63 | MADRS item 8 Inability to Feel: Adjusted Mean Change TC-5214—Placebo (SD) [1]: −0.76 (1.25) | MADRS item 8 Inability to Feel: Effect Size [1]: 0.61 | MADRS item 9 Pessimistic Thoughts: Adjusted Mean Change TC-5214—Placebo (SD) [1]: −0.74 (1.18) | MADRS item 9 Pessimistic Thoughts: Effect Size [1]: 0.63 | MADRS item 10 Suicidal Thoughts: Adjusted Mean Change TC-5214—Placebo (SD) [1]: −0.29 (0.61) | MADRS item 10 Suicidal Thoughts: Effect Size [1]: 0.48 | each MADRS subscale score change from baseline compared with placebo (ITT, result in words): statistically significant decreases (improvements)

From patent US20120190752A1, “EXO-S-MECAMYLAMINE METHOD, USE, AND COMPOUND FOR TREATMENT” (Targacept Inc., priority 2009, published 2012)
